# Experimental data reported in patent US6482410B1, “Cytotactin derivatives that stimulate attachment and neurite outgrowth, and methods of making same” (The Scripps Research Institute, priority 1994, dated 2002).
# “Also recorded” adds a separate entry of the source. No end group written: not given here.
# Tests used:
# type I collagen = settings: Dedhar et al. 1987; Hynes 1992; cited from earlier work
# [1] = test system: dorsal root ganglia (DRG) neurons; assay: Two-dimensional neurite outgrowth assay, DRG, 15 hours; format: cell-based, chicken; settings: DRG neurons
# Description: Dorsal root ganglia (DRG) cells or forebrain neurons were prepared for the cell attachment assays as follows. DRG from day 6 chicken embryos or forebrains from day 7 chicken embryos were dissected into HBSS. The tissue was pelleted by centrifugation and resuspended in CMF-HBSS and incubated at 37° C. for 10 minutes. The tissue was pelleted again and resuspended in CMF-HBSS containing 0.08% trypsin and allowed to trypsinize for 20 minutes at 37° C. An equal volume of DMEM/F12, 10% FCS, 20 ng/ml nerve growth factor (NGF) (for DRG cells only), 10 μg/ml gentamycin (10% medium) was added, and the tissue was pelleted and resuspended in 2 ml of the 10% medium. The cells were triturated with a fire-polished Pasteur pipette for 15 strokes, and the cells were washed and resuspended in 10 ml of 10% medium. DRG cells were plated in a 10 cm tissue culture dish and incubated for 1 hour at 37° C. in 5% CO2, to allow for attachment of contaminating fibroblasts.
# After replating, the cells were harvested, pelleted and washed three times in DMEM/F12, 1% fetal calf serum (FCS), 20 ng/ml NGF (for DRG cells only), 10 μg/ml gentamycin (1% medium), and the number of cells determined using a hemocytometer. The DRG were resuspended to a density of 6×10^5 cells/ml in attachment buffer. The neurons were resuspended to a density of 2×10^4 cells/ml in 1% medium and added to substrates and placed at 37° C., 5% CO2 for 15 hours.
# After the growth period, the dishes were gently rinsed with PBS to remove unbound cells, fixed with 1% glutaraldehyde, and viewed by phase contrast microscopy. Ten to forty cells were analyzed for each substrate. Cells were judged as neurite-bearing if the length of the processes was greater than one cell diameter. All cells with neurites were photographed with a 20× objective and total neurite length per neurite-bearing cell was derived from the photographic prints. Percentage of neuronal sprouting was calculated from at least six experiments. Neurite length was calculated from at least three experiments.
# This extensive neurite outgrowth after 40 hours made quantitation of the percentage of neurite-bearing cells and neurite length difficult. To analyze quantitatively the effect of CT/TN fusion proteins on DRG neurite outgrowth, DRG cells were therefore plated at low density on CT/TN or CT/TN fragments and analyzed after 15 hours in culture for the percentage of cells that sprouted neurites greater than one cell diameter and for the everage neurite length per neuron. These conditions enhanced the number of isolated cells and discouraged the cell-cell interactions and fasciculation that occurred in the long-term cultures.
# The proteins used in the neurite outgrowth assays are the same as those used in the cell attachment assays. […] In addition, poly-L-lysine was adsorbed to the solid support. […] Any cells adhering to the solid support were examined for sprouting and neurite length as defined herein.
# Proteins used in the neurite outgrowth assays were prepared as described in Example 5.A.2.
# Dorsal root ganglia (DRG) from day 6 chicken embryos were prepared as described in Example 5.A.4. For the neurite outgrowth assays, the DRG were resuspended at a density of 2×10^4 cells/ml in 1% medium, added to solid support, and placed at 37° C. in 5% CO2 for 15 hours. After the attachment and growth period, the dishes were gently rinsed with PBS to remove unbound cells, fixed with 1% (v/v) glutaraldehyde, and viewed by phase contrast microscopy. Ten to thirty cells were analyzed for each adsorbed protein spot. Cells were judged as neurite-bearing if the length of the processes were greater than one cell diameter. All cells with neurites were photographed with a 40× objective and the total neurite length per neurite-bearing cell was derived from the prints. The percent of cells that were sprouting and the average neurite length was derived from six and three independent experiments, respectively. […]
# [2] = test system: chicken fibroblast SL29 cells; assay: Cell attachment inhibition assay, fibroblasts on CT or CT:GST fusion proteins; format: cell-based; settings: for inhibition of cell attachment to intact CT: RGD peptides 1 mg/ml, JG22 50 μg/ml, FIG. 2; for effect on cell attachment to CTfg substrate / effect on cell attachment to CTfn3 substrate / effect on cell attachment to CTfn6 substrate: equimolar substrates
# Description: In the cell attachment inhibition assay, a single cell suspension was incubated with a potential inhibitor and then allowed to settle for a fixed period of time onto a solid support that has been coated with the different proteins to be tested (Friedlander, et al., J. Cell Biol. 107: 2329-2340 (1988)). After removing the unbound and loosely bound cells by washing, the attachment and morphology of those cells remaining on the dish were analyzed.
# In the cell attachment inhibition assays, cells were incubated with soluble RGD peptides and/or a monoclonal antibody prior to incubation with solid support.
# The inhibitors tested were the RGD-containing soluble peptides, GRGDSP and GRGDTP and the mAb JG22 (Developmental Studies Hybridoma Bank at Department of Pharmacology and Molecular Sciences, Johns Hopkins University School of Medicine, Baltimore, Md.). JG22 is a mouse hybridoma which binds to many types of chicken cells, including fibroblasts and muscle, and is specific to chicken (Greve, et al., J. Cell. Biochem. 18: 221-229 (1982)). JG22 is known to perturb cell attachment to extracellular matrix proteins and disrupts the function of the β1 integrin.
# The cell attachment inhibition assay was performed essentially as described for the cell attachment assay in Example 5.B., but with the following modifications.
# The solid support and cells were prepared as described in Example 5.B. Again, the initial assay was performed using only intact CT for the preparation of the solid support. The inhibitors tested, GRGDSP, GRGDTP, and the mAb JG22, were admixed with separate aliquots of the chicken fibroblast SL29 and DRG cells prior to addition to the solid support containing intact CT. The RGD-containing peptides were added at a final concentration of 1 mg/ml. The mAb JG22 was added at a final concentration of 50 μg/ml. A combination of each of the RGD-containing peptides and mAb JG22 were also incubated with the fibroblast and DRG cells. The cells and potential inhibitors were incubated for 10 minutes at room temperature and then added to the solid support. Fibroblast and DRG cells without inhibitors were also added to the solid support.
# After incubation at 37° C. in 5% CO2 for 1 hour, the solid supports were washed three times in PBS with gentle swirling to remove unattached cells. The cells attached to the solid support were fixed in 1% (v/v) glutaraldehyde in PBS and viewed by phase contrast microscopy. The attached cells were counted using a 10× objective and with an eyepiece reticle. Cells were counted in four fields per adsorbed protein spot. Each protein was tested in three separate spots. The number of cells bound was expressed as the average of the twelve measurements±the standard deviation.
# The cell attachment inhibition assay was repeated as described above but using all of the CT:GST fusion proteins in place of intact CT for the preparation of the solid support as described in Example 1.
# Cell attachment assays were performed essentially as follows. The chicken fibroblast cell line SL29 was grown to confluence in DMEM with 10% FCS and penicillin/streptomycin. The cells were passaged the night before the assay and seeded at a density of 1:2. Cells were harvested in calcium, magnesium free Hank's balanced salt solution (CMF-HBSS) with 20 mM Hepes buffer and 5 mM EDTA added. The cells were then washed in attachment buffer (CMF-HBSS, 10 mM Hepes, 1 mM CaCl2, 1 mM MgCl2, 0.1 mM MnCl2, 2% BSA) three times, counted in a hemocytometer, resuspended to a density of 6×10^5 cells/ml. Dorsal root ganglion (DRG) neurons were prepared for attachment assays as described in Example 5, but were washed and resuspended at a density of 6×10^5 cells/ml in attachment buffer. Inhibitors of attachment were added at this time.
# To some samples GRGDSP (SEQ ID NO 11) or GRGDTP (SEQ ID NO 12) peptide was added at a concentration of 1 mg/ml. […]
Substance,inhibition of cell attachment to collagen I (type I collagen),effect on neurite outgrowth on CTfn3 or CTfn6 substrates [1],effect on neurite outgrowth on polylysine-coated substrates [1],"inhibition of SL29 attachment to CT/TN, further analysis ([2]; 1 mg/ml GRGDTP peptide) [%]",inhibition of cell attachment to intact CT [2] [%],effect on cell attachment to CTfn5-6 substrate ([2]; inhibitor added before plating),effect on cell attachment to CTfg substrate ([2]; inhibitor added before plating),effect on cell attachment to CTfn3 substrate ([2]; inhibitor added before plating),effect on cell attachment to CTfn6 substrate ([2]; inhibitor added before plating)
GRGDTP [GRGDTP],active inhibitor; also recorded: inhibit binding to collagen I,inhibited neurite outgrowth,not on polylysine-coated substrates,33,70,unaffected,unaffected,completely inhibited; also recorded: selectively inhibited,not effective; also recorded: ineffective
Gly-Arg-Gly-Asp-Ser-Pro [GRGDSP],far less effective inhibitor; also recorded: had no effect; also recorded: generally has no effect,,,,73,,unaffected,completely inhibited,only partially inhibited; also recorded: could inhibit
